Experimental data as given in the NIST ThermoML archive (doi:10.1021/je900093h).
Numbers after ± are expanded uncertainties.

Experiment: molar heat capacity at saturation pressure
Conditions: Crystal, Vacuum adiabatic calorimetry

CCCCCCCCCC(=O)OCC [ethyl decanoate]
Conditions	molar heat capacity [J/K/mol]
138.13 K	196.6 ± 1.6
140.08 K	198.3 ± 1.6
140.1 K	198.4 ± 1.6
142.02 K	200 ± 1.6
142.07 K	200.1 ± 1.6
143.97 K	201.6 ± 1.6
144.06 K	201.8 ± 1.6
145.92 K	203.3 ± 1.7
146.04 K	203.6 ± 1.7
147.87 K	205 ± 1.7
148.02 K	205.3 ± 1.7
149.82 K	206.5 ± 1.7
150 K	206.9 ± 1.7
151.77 K	208.2 ± 1.7
151.98 K	208.5 ± 1.7
153.72 K	209.7 ± 1.7
153.97 K	210 ± 1.7
155.68 K	211.2 ± 1.7
155.95 K	211.5 ± 1.7
157.63 K	212.8 ± 1.7
157.93 K	213.2 ± 1.7
159.59 K	214.4 ± 1.7
159.92 K	214.8 ± 1.7
161.55 K	215.9 ± 1.8
161.91 K	216.3 ± 1.8
163.5 K	217.4 ± 1.8
163.89 K	217.8 ± 1.8
165.46 K	218.9 ± 1.8
165.88 K	219.2 ± 1.8
167.42 K	220.4 ± 1.8
167.86 K	220.8 ± 1.8
169.38 K	222 ± 1.8
169.85 K	222.3 ± 1.8
171.34 K	223.6 ± 1.8
171.83 K	223.9 ± 1.8
173.3 K	225.1 ± 1.8
173.81 K	225.6 ± 1.8
175.26 K	226.6 ± 1.8
175.79 K	227.1 ± 1.8
177.23 K	228.3 ± 1.9
177.77 K	228.7 ± 1.9
179.19 K	229.8 ± 1.9
179.74 K	230.3 ± 1.9
180.73 K	230.9 ± 1.9
181.15 K	231.3 ± 1.9
181.61 K	231.8 ± 1.9
181.72 K	232 ± 1.9
182.71 K	232.5 ± 1.9
183.11 K	233.1 ± 1.9
183.59 K	233.4 ± 1.9
183.69 K	233.6 ± 1.9
184.69 K	234.2 ± 1.9
185.07 K	234.7 ± 1.9
185.57 K	235.1 ± 1.9
185.67 K	235.2 ± 1.9
186.66 K	235.8 ± 1.9
187.04 K	236.4 ± 1.9
187.54 K	236.7 ± 1.9
187.64 K	236.8 ± 1.9
188.63 K	237.5 ± 1.9
189 K	238 ± 1.9
189.52 K	238.4 ± 1.9
189.6 K	238.5 ± 1.9
190.6 K	239.3 ± 1.9
190.96 K	239.7 ± 1.9
191.49 K	240 ± 1.9
191.57 K	240.2 ± 1.9
191.61 K	240.1 ± 1.9
192.56 K	240.9 ± 2
192.93 K	241.4 ± 2
193.45 K	241.6 ± 2
193.53 K	241.9 ± 2
193.58 K	241.8 ± 2
194.53 K	242.6 ± 2
194.89 K	243.1 ± 2
195.42 K	243.3 ± 2
195.48 K	243.5 ± 2
195.54 K	243.5 ± 2
196.49 K	244.4 ± 2
196.85 K	244.7 ± 2
197.38 K	245 ± 2
197.44 K	245.2 ± 2
197.5 K	245.2 ± 2
198.44 K	246.2 ± 2
198.81 K	246.5 ± 2
199.33 K	246.7 ± 2
199.39 K	247 ± 2
199.46 K	246.8 ± 2
200.4 K	247.8 ± 2
200.77 K	248.3 ± 2
201.28 K	248.3 ± 2
201.35 K	248.7 ± 2
201.46 K	248.6 ± 2
202.35 K	249.5 ± 2
202.74 K	249.9 ± 2
203.24 K	250.1 ± 2
203.29 K	250.4 ± 2
203.52 K	250.4 ± 2
204.3 K	251.3 ± 2
